Literature values in patent US20060165789A1, “Lercanidipine modified release compositions” (Forest Laboratories, Inc., priority 2004, published 2006).

Assays:
Caco2 cell = Caco2 cell apparatus
[1] = test system: dihyropyridine subunit of the L-type calcium channel
[2] = molecular target: cytochrome P450 3A4 isoenzyme (Homo sapiens, UniProt P08684); settings: extensive presystemic first pass elimination in patients
[3] = pH 5
[4] = for time of maximum concentration (Tmax): form (I) and form (II) compared

Sequence of cytochrome P450 3A4 isoenzyme (P08684 whole entry): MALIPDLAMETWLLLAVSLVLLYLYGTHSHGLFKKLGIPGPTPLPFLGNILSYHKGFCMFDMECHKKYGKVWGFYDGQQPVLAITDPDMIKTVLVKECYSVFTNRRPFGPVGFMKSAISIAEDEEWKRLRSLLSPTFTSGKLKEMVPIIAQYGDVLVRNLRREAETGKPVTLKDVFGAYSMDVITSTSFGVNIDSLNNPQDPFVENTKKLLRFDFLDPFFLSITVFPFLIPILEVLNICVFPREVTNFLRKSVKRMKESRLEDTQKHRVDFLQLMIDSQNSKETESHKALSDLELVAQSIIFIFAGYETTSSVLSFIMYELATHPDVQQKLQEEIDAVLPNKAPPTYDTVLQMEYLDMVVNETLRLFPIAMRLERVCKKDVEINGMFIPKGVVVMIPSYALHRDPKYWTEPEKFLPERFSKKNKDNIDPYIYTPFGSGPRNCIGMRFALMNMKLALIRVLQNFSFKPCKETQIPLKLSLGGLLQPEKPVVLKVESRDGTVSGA

Row | SMILES | Papp (Caco2 cell) | affinity for L-type calcium channel [1] | increase of amount of lercanidipine absorbed with food (in vivo) | time of peak plasma level following dosage (oral administration) | cytochrome P450 3A4 substrate [2] | solubility in acidic medium [3] | time of maximum concentration (Tmax) [4] | bioavailability ([4]; form (II) compared to Form (I)) | systemic exposure (AUCo-t) ([4]; form (II) compared to Form (I))
1 | COC(=O)C1=C(C)NC(C)=C(C(=O)OC(C)(C)CN(C)CCC(c2ccccc2)c2ccccc2)C1c1cccc([N+](=O)[O-])c1.Cl (stereo not shown) [Lercanidipine, methyl 1,1,N-trimethyl-N-(3,3-diphenylpropyl)-2-aminoethyl 1,4-dihydro-2,6-dimethyl-4-(3-nitrophenyl)pyridine-3,5-dicarboxylate] | 0.05 ×10⁻⁶ cm/s | high affinity | between three and four times | 1 to 3 h | substrate for cytochrome P450 3A4 isoenzyme | less than 20 μg/ml | – | – | –
2 | COC(=O)C1=C(C)NC(C)=C(C(=O)OC(C)(C)CN(C)CCC(c2ccccc2)c2ccccc2)C1c1cccc([N+](=O)[O-])c1 (stereo not shown) [form (I)] | – | – | – | – | – | – | shorter time to maximum concentration | – | –
3 | COC(=O)C1=C(C)NC(C)=C(C(=O)OC(C)(C)CN(C)CCC(c2ccccc2)c2ccccc2)C1c1cccc([N+](=O)[O-])c1 (stereo not shown) [form (II)] | – | – | – | – | – | – | delayed time of maximum concentration | higher bioavailability | slightly higher systemic exposure
